Data: patent US20240425491A1, “HETEROARYL COMPOUNDS USEFUL IN THE TREATMENT OF COGNITIVE DISORDERS” (University College Cardiff Consultants Limited, priority 2021, published 2024)

Assays:
rat brain α5-GABAARs = target: T1, rat brain α5-GABAARs (Rattus norvegicus, UniProt P18508+P19969); experiment: In vivo brain receptor occupancy assay ([3H]L-655,708 binding)
T1 construct: from tissue; host or cells: forebrain of male Sprague-Dawley rats, dosed in vivo
Protocol: The occupancy of rat brain benzodiazepine binding sites by compound was measured by its ability to inhibit the in vivo binding of [^3H] L-655,708. This radioligand is selective for the benzodiazepine site of GABAA receptors containing an α5 subunit (Quirk et al. 2001, Journal of Neurochemistry, 77 445-51) and has been used previously to measure in vivo α5-GABAAR occupancy (Atack et al. 2005, Neuropharmacology, 49 220-229).
[…] To block all benzodiazepine binding sites and therefore define the level of non-specific binding of [^3H] […]
Animals were then killed by stunning and decapitation, the whole brain was rapidly removed, the cerebellum and brainstem were discarded, leaving the forebrain which was weighed and homogenised in 10 volumes of ice-cold homogenising buffer (10 mM potassium phosphate buffer containing 100 mM KCl, pH 7.4). Aliquots of homogenate (500 μL) were then added directly to scintillation vials (total radioactivity) or filtered and washed with 5 ml Tris-HCL buffer (50 mM, pH 7.4) over Whatman glass microfiber GF/B filters. Washed filters were then placed in scintillation vials (three filters per vial) and scintillation fluid was added to all vials, which were then counted on a Perkin-Elmer Tricarb 2900TR scintillation counter (membrane-bound radioactivity). […]

[1] = target: T2, human recombinant GABAAR containing α5β3γ2 subunits (benzodiazepine site) (Homo sapiens, UniProt P18507+P31644); experiment: In vitro radioligand binding assay (α5-GABAAR Ki); conditions: inhibition of [3H]Ro15-1788 binding, membranes of L(tk−) cells expressing human α5β3γ2; read-out: α5-GABAAR Ki
T2 construct: expressed in transfected cells; host or cells: mouse L(tk−) cells, dexamethasone-inducible vector pMSGneo
How it was run: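 Displacement of 4 nM [^3H]flumazenil from the benzodiazepine site, read by filtration and scintillation, gave IC50, converted to Ki (Cheng-Prusoff, saturation-derived Kd). Receptor: human α5β3γ2 membranes from L(tk^−) cells, 50 μg protein/well; 1 h, 4° C; TP003 1 μM defined nonspecific binding.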

[2] = test system: mouse hippocampal brain slices (LTP suppressed by etomidate); experiment: Electrophysiology in hippocampal slices - long term potentiation assay

T1 sequence (P19969 32-464 limits assumed): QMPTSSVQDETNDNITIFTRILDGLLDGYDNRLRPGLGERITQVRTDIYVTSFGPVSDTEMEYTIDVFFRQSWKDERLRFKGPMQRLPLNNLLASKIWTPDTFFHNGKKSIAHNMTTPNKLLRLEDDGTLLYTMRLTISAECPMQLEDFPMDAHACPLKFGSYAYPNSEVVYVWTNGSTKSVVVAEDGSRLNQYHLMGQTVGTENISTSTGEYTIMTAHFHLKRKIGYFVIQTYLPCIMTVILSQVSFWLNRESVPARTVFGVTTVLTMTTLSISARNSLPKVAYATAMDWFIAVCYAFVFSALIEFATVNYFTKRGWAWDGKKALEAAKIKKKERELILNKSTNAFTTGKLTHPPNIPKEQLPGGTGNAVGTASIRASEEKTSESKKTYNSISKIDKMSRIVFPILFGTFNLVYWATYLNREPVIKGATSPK
T1 sequence (P18508 39-466): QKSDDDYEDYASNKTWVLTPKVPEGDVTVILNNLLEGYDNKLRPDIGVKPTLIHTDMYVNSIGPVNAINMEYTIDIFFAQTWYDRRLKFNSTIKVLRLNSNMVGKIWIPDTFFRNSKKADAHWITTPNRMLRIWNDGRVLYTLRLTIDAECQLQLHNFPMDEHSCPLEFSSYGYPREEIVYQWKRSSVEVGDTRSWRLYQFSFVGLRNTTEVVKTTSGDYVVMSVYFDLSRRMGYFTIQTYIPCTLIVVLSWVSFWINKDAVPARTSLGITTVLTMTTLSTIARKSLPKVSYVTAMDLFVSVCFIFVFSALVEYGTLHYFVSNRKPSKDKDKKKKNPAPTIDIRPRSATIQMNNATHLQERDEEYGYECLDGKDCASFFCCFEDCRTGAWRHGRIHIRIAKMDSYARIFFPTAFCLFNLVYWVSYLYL
T2 sequence (P31644 32-462): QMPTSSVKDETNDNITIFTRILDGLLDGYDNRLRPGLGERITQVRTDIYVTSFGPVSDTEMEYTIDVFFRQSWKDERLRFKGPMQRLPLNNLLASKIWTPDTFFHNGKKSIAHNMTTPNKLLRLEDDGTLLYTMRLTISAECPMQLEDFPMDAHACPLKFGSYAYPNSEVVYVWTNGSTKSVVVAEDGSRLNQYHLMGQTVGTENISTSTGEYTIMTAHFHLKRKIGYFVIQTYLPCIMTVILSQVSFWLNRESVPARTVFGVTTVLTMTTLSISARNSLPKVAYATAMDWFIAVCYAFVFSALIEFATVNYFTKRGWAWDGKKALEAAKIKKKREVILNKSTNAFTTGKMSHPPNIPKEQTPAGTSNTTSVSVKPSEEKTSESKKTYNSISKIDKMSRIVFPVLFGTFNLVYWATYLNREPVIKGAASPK
T2 sequence (P28472 26-473 partner): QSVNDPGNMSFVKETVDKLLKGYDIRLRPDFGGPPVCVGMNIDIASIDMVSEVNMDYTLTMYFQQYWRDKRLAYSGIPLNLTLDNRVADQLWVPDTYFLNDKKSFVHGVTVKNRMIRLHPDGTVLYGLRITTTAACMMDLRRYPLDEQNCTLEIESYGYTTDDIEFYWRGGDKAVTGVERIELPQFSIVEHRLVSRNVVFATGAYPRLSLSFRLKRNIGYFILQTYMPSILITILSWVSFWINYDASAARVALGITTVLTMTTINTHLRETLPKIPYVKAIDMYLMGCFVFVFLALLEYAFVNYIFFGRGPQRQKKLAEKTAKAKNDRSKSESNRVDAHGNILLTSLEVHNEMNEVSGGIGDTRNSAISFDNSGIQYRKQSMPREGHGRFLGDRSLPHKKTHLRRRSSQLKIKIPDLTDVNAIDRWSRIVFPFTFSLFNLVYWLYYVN
T2 sequence (P18507 40-475): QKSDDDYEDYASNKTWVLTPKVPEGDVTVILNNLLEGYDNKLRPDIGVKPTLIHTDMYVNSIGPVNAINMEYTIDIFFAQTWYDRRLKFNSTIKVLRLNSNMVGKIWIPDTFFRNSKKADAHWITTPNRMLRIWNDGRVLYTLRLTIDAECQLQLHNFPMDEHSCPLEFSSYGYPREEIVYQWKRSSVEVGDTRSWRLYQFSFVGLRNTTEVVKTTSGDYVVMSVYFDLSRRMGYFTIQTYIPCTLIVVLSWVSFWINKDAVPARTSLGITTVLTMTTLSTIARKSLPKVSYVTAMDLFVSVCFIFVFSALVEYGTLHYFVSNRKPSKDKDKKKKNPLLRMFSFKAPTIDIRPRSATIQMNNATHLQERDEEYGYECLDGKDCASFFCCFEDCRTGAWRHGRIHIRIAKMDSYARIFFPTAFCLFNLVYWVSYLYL

SMILES: COc1nc(-n2ccnc2)ccc1NC(=O)c1c(-c2ccccc2)noc1C [Example 1, N-(6-Imidazol-1-yl-2-methoxy-3-pyridyl)-5-methyl-3-phenyl-isoxazole-4-carboxamide]
- occupancy of rat brain α5-GABAARs, dependence on dose (rat brain α5-GABAARs; 3 to 30 mg/kg p.o., FIG. 3): dose-dependent
- receptor occupancy at 10 mg/kg (rat brain α5-GABAARs; po, 10 mg/kg p.o., inhibition of in vivo [3H]L655,708 binding, FIG. 3, read-out: occupancy of rat brain α5 GABAA receptors): 77%
- Ki [1]: 2.9 nM
- magnitude of LTP (fEPSP slope as % of control fEPSPs prior to 4-TBS vs time) ([2]; 1 μM co-added with etomidate 3 μM, n=6, FIG. 2A): rescued
- fEPSP slope at 50-60 min post-delivery of the 4-TBS ([2]; co-incubation with etomidate, one-way ANOVA, post-hoc Tukey, p<0.05, FIG. 2B): significantly increased fEPSP slope
